Reference: US12370235B2, “Synthetic, non-natural antimicrobial peptides inspired by Staphylococcus auricularis delta toxin” (University of Saskatchewan, priority 2021, dated 2025)
Ends that are not written are not given here.

Key:
[1] = system: S. aureus ATCC 29213; experiment: MIC, broth dilution; type: cell-based, Staphylococcus aureus; conditions: Table 5; STIP3 variants, highest concentration 100 μg/mL
Protocol: (§1) MIC determination. MICs were measured using peptides with 95% purity. For bacterial studies, cation-adjusted Mueller Hinton (MH) broth was used as the growth medium whereas Yeast Peptone Dextrose (YPD; 10 g/L yeast extract, 20 g/L peptone, 20 g/L dextrose) was used for Candida spp. and other yeast. Microorganisms were diluted to an optical density of […] in MH or YPD broth and a 180 μl volume was mixed with 20 μl of peptide arrayed as a 2-fold dilution series in a flat-bottom 96-well microtitre plate. A control was performed using 20 μl of sterile water. Plates were incubated as standing cultures overnight at 37° C.
(§2) Determination of minimum inhibitory concentrations. The MICs were measured for bioactive peptides identified from the initial screen. For bacterial studies, cation-adjusted Mueller Hinton (MH) broth was used as the growth medium whereas YPD was used for C. albicans. Bacterial cultures were diluted to a OD value of 6×10^−4 in MH broth and a 180 μl volume was mixed with 20 μl of peptide arrayed as 2-fold dilution series in a 96-well plate. For the positive control, 20 μl of sterile water was used. Plates were incubated as standing cultures overnight at 37° C. The lowest peptide concentration that resulted no observed microbial growth after an overnight treatment was defined as the MIC.

[2] = system: S. aureus ATCC 33592 (MRSA SCCmec type III); experiment: MIC, broth dilution; type: cell-based, Staphylococcus aureus; conditions: Table 5; STIP3 variants, highest concentration 100 μg/mL
Protocol: as §1, §2

[3] = system: S. aureus ATCC BAA-1683 (MRSA SCCmec type IV); experiment: MIC, broth dilution; type: cell-based, Staphylococcus aureus; conditions: Table 5; STIP3 variants, highest concentration 100 μg/mL
Protocol: as §1, §2

[4] = system: S. aureus ATCC BAA-2094 (MRSA SCCmec type V); experiment: MIC, broth dilution; type: cell-based, Staphylococcus aureus; conditions: Table 5; STIP3 variants, highest concentration 100 μg/mL
Protocol: as §1, §2

[5] = system: S. aureus ATCC BAA-2313 (MRSA SCCmec type XI); experiment: MIC, broth dilution; type: cell-based, Staphylococcus aureus; conditions: Table 5; STIP3 variants, highest concentration 100 μg/mL
Protocol: as §1, §2

[6] = system: S. aureus ATCC BAA-41 (MRSA SCCmec type II); experiment: MIC, broth dilution; type: cell-based, Staphylococcus aureus; conditions: Table 5; STIP3 variants, highest concentration 100 μg/mL
Protocol: as §1, §2

[7] = system: S. aureus ATCC BAA-42 (MRSA SCCmec type VI); experiment: MIC, broth dilution; type: cell-based, Staphylococcus aureus; conditions: Table 5; STIP3 variants, highest concentration 100 μg/mL
Protocol: as §1, §2

[8] = system: S. aureus ATCC BAA-44 (MRSA SCCmec type I); experiment: MIC, broth dilution; type: cell-based, Staphylococcus aureus; conditions: Table 5; STIP3 variants, highest concentration 100 μg/mL
Protocol: as §1, §2

[9] = system: Mannheimia haemolytica ATCC 33393; experiment: MIC, broth dilution; type: cell-based; conditions: Table 11; highest concentration 25 μg/mL
Protocol: as §1, §2
The ability of STIP3 variants to inhibit the growth of Mannheimia haemolytica ATCC 33393 was evaluated. This included an alanine scan of STIP3-1 (FIG. 8 & Table 10) as well as 30 rationally-designed STIPs that were evaluated in the preceding Examples against other pathogens (Table 11). Substitutions at a greater number of sites were tolerated in the context of antimicrobial activity. Moreover, the inclusion of basic natural and unnatural amino acids (e.g. lysine, ornithine, and arginine) at positions 3, 4 and 11 (i.e. X1, X2, and X4 of SEQ ID NO: 32) to afford a more uniformly cationic peptide increased activity against M. haemolytica.

[10] = system: C. albicans MYA-2876; experiment: MIC, YPD broth; type: cell-based, Candida albicans; conditions: Table 8
Protocol: as §1, §2

[11] = system: Candida duobushaemulonii AR 391; experiment: MIC, YPD broth, CDC and FDA AR Candida isolate panel; type: cell-based; conditions: Table 9 below the line: only 200 or 100 μg/mL tested; values reported as 100 are ≤100 μg/mL
Protocol: as §1

[12] = system: Candida duobushaemulonii AR 392; experiment: as above; type: cell-based; conditions: Table 9 below the line: only 200 or 100 μg/mL tested; values reported as 100 are ≤100 μg/mL
Protocol: as §1

[13] = system: Candida duobushaemulonii AR 394; experiment: as above; type: cell-based; conditions: Table 9 below the line: only 200 or 100 μg/mL tested; values reported as 100 are ≤100 μg/mL
Protocol: as §1

[14] = system: Candida haemulonii AR 393; experiment: as above; type: cell-based; conditions: Table 9 below the line: only 200 or 100 μg/mL tested; values reported as 100 are ≤100 μg/mL
Protocol: as §1

[15] = system: Candida haemulonii AR 395; experiment: as above; type: cell-based; conditions: Table 9 below the line: only 200 or 100 μg/mL tested; values reported as 100 are ≤100 μg/mL
Protocol: as §1

[16] = system: Candida krusei AR 397; experiment: as above; type: cell-based; conditions: Table 9 below the line: only 200 or 100 μg/mL tested; values reported as 100 are ≤100 μg/mL
Protocol: as §1

[17] = system: Candida lusitaniae AR 398; experiment: as above; type: cell-based; conditions: Table 9 below the line: only 200 or 100 μg/mL tested; values reported as 100 are ≤100 μg/mL
Protocol: as §1

[18] = system: Kodamae ohmeri AR 396; experiment: as above; type: cell-based; conditions: Table 9 below the line: only 200 or 100 μg/mL tested; values reported as 100 are ≤100 μg/mL
Protocol: as §1

[19] = system: Saccharomyces cerevisiae AR 399; experiment: as above; type: cell-based; conditions: Table 9 below the line: only 200 or 100 μg/mL tested; values reported as 100 are ≤100 μg/mL
Protocol: as §1

[20] = system: Saccharomyces cerevisiae AR 400; experiment: as above; type: cell-based; conditions: Table 9 below the line: only 200 or 100 μg/mL tested; values reported as 100 are ≤100 μg/mL
Protocol: as §1

Row | Sequence | MIC S. aureus ATCC 29213 [1] | MIC S. aureus ATCC 33592 (III) [2] | MIC S. aureus ATCC BAA 1683 (IV) [3] | MIC S. aureus ATCC BAA 2094 (V) [4] | MIC S. aureus ATCC BAA 2313 (XI) [5] | MIC S. aureus ATCC BAA 41 (II) [6] | MIC S. aureus ATCC BAA 42 (VI) [7] | MIC S. aureus ATCC BAA 44 (I) [8] | MIC (μg/mL) M. haemolytica [9] | MIC C. albicans MYA-2876 [10] [µg/mL] | MIC (μg/mL) Candida duobushaemulonii AR 391 [11] | MIC (μg/mL) Candida duobushaemulonii AR 392 [12] | MIC (μg/mL) Candida duobushaemulonii AR 394 [13] | MIC (μg/mL) Candida haemulonii AR 393 [14] | MIC (μg/mL) Candida haemulonii AR 395 [15] | MIC (μg/mL) Candida krusei AR 397 [16] [µg/mL] | MIC (μg/mL) Candida lusitaniae AR 398 [17] [µg/mL] | MIC (μg/mL) Kodamae ohmeri AR 396 [18] | MIC (μg/mL) Saccharomyces cerevisiae AR 399 [19] [µg/mL] | MIC (μg/mL) Saccharomyces cerevisiae AR 400 [20] [µg/mL]
1 | TVAGLVKWILATVKKFA [STIP3-15, TVAGLVKWILATVKKFA] | 25 µg/mL | 12.5 µg/mL | 25 µg/mL | 25 µg/mL | 50 µg/mL | 50 µg/mL | 50 µg/mL | 25 µg/mL | 25 µg/mL | 25 | > (values below the line were determined using two concentrations of peptide 200 or 100 μg/mL) | > (values below the line were determined using two concentrations of peptide 200 or 100 μg/mL) | > (values below the line were determined using two concentrations of peptide 200 or 100 μg/mL) | > (values below the line were determined using two concentrations of peptide 200 or 100 μg/mL) | > (values below the line were determined using two concentrations of peptide 200 or 100 μg/mL) | ≤ 100 | ≤ 100 | ≤ 100 µg/mL | ≤ 100 | ≤ 100
2 | TVDGLVKWILATVKKFA [STIP3-17, TVDGLVKWILATVKKFA] | > (no inhibition was observed at the highest concentration of peptide tested: 100 μg/mL for the STIP3 variants) | > (no inhibition was observed at the highest concentration of peptide tested: 100 μg/mL for the STIP3 variants) | > (no inhibition was observed at the highest concentration of peptide tested: 100 μg/mL for the STIP3 variants) | > (no inhibition was observed at the highest concentration of peptide tested: 100 μg/mL for the STIP3 variants) | > (no inhibition was observed at the highest concentration of peptide tested: 100 μg/mL for the STIP3 variants) | > (no inhibition was observed at the highest concentration of peptide tested: 100 μg/mL for the STIP3 variants) | > (no inhibition was observed at the highest concentration of peptide tested: 100 μg/mL for the STIP3 variants) | > (no inhibition was observed at the highest concentration of peptide tested: 100 μg/mL for the STIP3 variants) | > (> symbol indicates that no inhibition was observed at the highest concentration of peptide tested: 25 μg/mL) | 12.5 | > (values below the line were determined using two concentrations of peptide 200 or 100 μg/mL) | > (values below the line were determined using two concentrations of peptide 200 or 100 μg/mL) | > (values below the line were determined using two concentrations of peptide 200 or 100 μg/mL) | > (values below the line were determined using two concentrations of peptide 200 or 100 μg/mL) | > (values below the line were determined using two concentrations of peptide 200 or 100 μg/mL) | ≤ 100 | ≤ 100 | > (values below the line were determined using two concentrations of peptide 200 or 100 μg/mL) | ≤ 100 | ≤ 100
3 | TVGGLVKWILAAVKKFA [STIP3-12, TVGGLVKWILAAVKKFA] | 25 µg/mL | 25 µg/mL | 25 µg/mL | 50 µg/mL | 25 µg/mL | 25 µg/mL | 25 µg/mL | 25 µg/mL | 25 µg/mL | 100 | > (values below the line were determined using two concentrations of peptide 200 or 100 μg/mL) | > (values below the line were determined using two concentrations of peptide 200 or 100 μg/mL) | > (values below the line were determined using two concentrations of peptide 200 or 100 μg/mL) | > (values below the line were determined using two concentrations of peptide 200 or 100 μg/mL) | > (values below the line were determined using two concentrations of peptide 200 or 100 μg/mL) | ≤ 100 | ≤ 100 | > (values below the line were determined using two concentrations of peptide 200 or 100 μg/mL) | ≤ 100 | ≤ 100
4 | TVGGLVKWILDTFKKFA [STIP3-11, TVGGLVKWILDTFKKFA] | 50 µg/mL | 50 µg/mL | 50 µg/mL | 100 µg/mL | 100 µg/mL | 50 µg/mL | 50 µg/mL | 100 µg/mL | > (> symbol indicates that no inhibition was observed at the highest concentration of peptide tested: 25 μg/mL) | 25 | > (values below the line were determined using two concentrations of peptide 200 or 100 μg/mL) | > (values below the line were determined using two concentrations of peptide 200 or 100 μg/mL) | > (values below the line were determined using two concentrations of peptide 200 or 100 μg/mL) | > (values below the line were determined using two concentrations of peptide 200 or 100 μg/mL) | > (values below the line were determined using two concentrations of peptide 200 or 100 μg/mL) | ≤ 100 | ≤ 100 | > (values below the line were determined using two concentrations of peptide 200 or 100 μg/mL) | ≤ 100 | ≤ 100
